In experiment [1] the target is Cyclin-dependent kinase 2/cyclin A (Homo sapiens) (UniProt P24941+P20248+P78396). As to the kind of experiment: Residual activity of CDK2/Cyclin A at 1 uM by microplate scintillation counting. It is filed as protein-complex assay.
Experiment [2] addresses Activin receptor type-1-like (Homo sapiens) (UniProt P37023). As to the kind of experiment: Residual activity of ACV-RL1 at 1 uM by microplate scintillation counting.
Experiment [3] addresses T1, Serine/threonine-protein kinase Nek1 (Homo sapiens) (UniProt Q96PY6).
T1 sequence (whole entry): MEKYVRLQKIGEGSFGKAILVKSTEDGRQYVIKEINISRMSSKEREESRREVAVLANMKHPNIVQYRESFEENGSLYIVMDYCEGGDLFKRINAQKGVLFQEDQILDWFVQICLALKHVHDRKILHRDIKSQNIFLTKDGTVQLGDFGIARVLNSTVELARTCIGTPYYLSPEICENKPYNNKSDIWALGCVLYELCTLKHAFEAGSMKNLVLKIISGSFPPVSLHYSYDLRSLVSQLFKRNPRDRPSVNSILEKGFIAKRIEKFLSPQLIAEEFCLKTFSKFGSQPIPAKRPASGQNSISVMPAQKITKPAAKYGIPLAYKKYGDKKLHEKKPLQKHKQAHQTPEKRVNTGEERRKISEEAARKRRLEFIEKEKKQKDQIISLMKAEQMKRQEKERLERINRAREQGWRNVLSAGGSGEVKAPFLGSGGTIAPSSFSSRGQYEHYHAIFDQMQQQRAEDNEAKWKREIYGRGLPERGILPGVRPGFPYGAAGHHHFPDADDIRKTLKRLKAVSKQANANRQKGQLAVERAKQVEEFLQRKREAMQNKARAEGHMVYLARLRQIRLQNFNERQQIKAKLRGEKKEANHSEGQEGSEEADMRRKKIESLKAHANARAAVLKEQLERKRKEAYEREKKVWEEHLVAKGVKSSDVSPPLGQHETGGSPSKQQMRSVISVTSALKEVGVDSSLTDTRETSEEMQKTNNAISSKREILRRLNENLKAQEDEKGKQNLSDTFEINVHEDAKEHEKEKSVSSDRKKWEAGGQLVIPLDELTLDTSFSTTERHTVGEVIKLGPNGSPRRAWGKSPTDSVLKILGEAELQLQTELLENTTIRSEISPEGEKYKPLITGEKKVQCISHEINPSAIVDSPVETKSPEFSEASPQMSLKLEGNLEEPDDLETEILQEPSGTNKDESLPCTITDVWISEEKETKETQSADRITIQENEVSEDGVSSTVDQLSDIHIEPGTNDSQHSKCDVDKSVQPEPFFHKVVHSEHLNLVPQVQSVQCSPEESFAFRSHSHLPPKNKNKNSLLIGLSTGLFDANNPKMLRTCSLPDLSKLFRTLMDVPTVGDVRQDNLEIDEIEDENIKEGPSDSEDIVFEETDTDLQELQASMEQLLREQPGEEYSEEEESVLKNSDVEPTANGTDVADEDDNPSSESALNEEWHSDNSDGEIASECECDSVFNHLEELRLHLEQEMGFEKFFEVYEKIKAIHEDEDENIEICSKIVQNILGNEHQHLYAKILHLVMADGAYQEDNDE
As to the kind of experiment: Residual activity of NEK1 at 10 uM by microplate scintillation counting.

The target of experiment [4] is Fibroblast growth factor receptor 2 (Homo sapiens) (UniProt P21802). As to the kind of experiment: Residual activity of FGFR2 at 1 uM by microplate scintillation counting.
Experiment [5] concerns the target T2, Tyrosine-protein kinase JAK3 (Homo sapiens) (UniProt P52333).
T2 sequence (whole entry): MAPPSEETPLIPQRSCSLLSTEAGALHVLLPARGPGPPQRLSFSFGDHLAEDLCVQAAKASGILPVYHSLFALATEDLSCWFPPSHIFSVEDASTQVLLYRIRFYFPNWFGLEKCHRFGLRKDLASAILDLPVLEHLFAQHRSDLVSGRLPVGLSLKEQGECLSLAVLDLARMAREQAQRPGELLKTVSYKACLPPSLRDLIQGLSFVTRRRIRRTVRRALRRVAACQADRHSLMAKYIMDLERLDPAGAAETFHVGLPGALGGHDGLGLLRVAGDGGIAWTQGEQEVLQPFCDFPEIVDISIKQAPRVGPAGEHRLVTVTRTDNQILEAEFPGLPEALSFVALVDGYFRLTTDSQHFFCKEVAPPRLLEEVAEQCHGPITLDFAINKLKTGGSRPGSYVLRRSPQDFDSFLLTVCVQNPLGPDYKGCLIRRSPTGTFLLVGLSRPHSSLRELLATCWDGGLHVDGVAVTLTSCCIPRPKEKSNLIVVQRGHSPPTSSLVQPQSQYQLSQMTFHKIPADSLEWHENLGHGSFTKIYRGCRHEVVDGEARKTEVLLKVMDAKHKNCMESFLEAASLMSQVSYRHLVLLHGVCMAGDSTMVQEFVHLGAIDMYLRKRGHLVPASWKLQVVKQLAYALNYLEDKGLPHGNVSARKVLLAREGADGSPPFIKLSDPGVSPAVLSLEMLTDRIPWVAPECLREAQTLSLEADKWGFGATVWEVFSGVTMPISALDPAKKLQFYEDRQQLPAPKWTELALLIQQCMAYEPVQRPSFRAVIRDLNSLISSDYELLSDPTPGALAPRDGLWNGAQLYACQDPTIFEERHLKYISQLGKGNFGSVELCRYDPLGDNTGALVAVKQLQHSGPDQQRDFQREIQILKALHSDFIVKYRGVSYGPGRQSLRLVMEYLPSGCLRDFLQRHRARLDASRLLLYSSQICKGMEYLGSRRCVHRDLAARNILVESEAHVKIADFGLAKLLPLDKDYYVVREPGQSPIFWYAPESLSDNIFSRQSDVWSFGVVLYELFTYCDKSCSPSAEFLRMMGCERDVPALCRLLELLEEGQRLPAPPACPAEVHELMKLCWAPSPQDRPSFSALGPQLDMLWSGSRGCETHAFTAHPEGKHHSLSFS
The experiment is described as follows: Residual activity of JAK3 at 10 uM by microplate scintillation counting.

By residual activity is commonly meant the signal under treatment as a percentage of the control signal.

Structures are written as SMILES.

Sequence of Fibroblast growth factor receptor 2 (Homo sapiens) (P21802 22-821 limits assumed): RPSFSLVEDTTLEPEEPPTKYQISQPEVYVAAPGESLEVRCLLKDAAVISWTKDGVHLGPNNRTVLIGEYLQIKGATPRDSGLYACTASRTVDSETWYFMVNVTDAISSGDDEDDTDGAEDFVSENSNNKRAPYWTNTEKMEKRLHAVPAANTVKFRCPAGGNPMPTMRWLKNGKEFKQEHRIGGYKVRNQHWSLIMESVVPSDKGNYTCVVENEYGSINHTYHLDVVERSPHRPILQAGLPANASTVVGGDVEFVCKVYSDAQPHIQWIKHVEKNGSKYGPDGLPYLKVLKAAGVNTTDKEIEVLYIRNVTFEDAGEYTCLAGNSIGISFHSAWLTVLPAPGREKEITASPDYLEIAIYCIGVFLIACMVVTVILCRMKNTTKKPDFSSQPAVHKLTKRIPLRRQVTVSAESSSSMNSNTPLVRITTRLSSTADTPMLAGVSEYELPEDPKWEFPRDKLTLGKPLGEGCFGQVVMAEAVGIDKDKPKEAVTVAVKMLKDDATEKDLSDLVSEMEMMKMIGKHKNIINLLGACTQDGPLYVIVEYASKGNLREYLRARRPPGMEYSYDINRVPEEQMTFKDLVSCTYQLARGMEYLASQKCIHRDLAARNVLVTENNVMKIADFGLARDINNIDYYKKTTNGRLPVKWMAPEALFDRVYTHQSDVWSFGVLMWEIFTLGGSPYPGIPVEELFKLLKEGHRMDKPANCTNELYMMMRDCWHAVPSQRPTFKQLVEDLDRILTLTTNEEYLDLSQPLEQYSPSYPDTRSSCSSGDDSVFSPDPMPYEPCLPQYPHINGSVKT
Sequence of Activin receptor type-1-like (Homo sapiens) (P37023 whole entry): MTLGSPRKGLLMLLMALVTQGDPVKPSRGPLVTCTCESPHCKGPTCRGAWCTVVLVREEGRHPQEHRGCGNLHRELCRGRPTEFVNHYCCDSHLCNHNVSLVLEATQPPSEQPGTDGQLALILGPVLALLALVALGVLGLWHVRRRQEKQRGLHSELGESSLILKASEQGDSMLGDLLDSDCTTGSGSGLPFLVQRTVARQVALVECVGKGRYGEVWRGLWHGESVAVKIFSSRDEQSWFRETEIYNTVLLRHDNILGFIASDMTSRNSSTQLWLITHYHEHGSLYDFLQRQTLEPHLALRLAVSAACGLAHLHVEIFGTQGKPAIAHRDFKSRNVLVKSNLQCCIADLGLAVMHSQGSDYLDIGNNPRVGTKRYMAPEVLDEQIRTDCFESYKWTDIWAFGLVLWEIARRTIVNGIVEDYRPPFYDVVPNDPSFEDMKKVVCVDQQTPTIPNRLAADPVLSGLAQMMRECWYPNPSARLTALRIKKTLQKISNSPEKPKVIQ

On to `COc1cc2c(Oc3ccc(-c4nc5ccccc5s4)cc3F)ncnc2cc1OCCCN1CCN(C)CC1`, for which the residual activity was determined as 97% in experiment [1]; 92% in experiment [2]; 101% in experiment [3]; 120% in experiment [4]; 53% in experiment [5].

Take `COc1cc2c(Oc3ccc(-c4nc5ccccc5s4)cc3)ncnc2cc1OCCCN1CCN(C)CC1`: the residual activity in experiment [1] came to 96%; in experiment [2], 78%; in experiment [3], 104%; in experiment [4] it was 111%; in experiment [5] it was 63%.

As to `COc1cc2c(Oc3ccc(-c4nc5ccccc5s4)cc3)ncnc2cc1OCCCN1CCCC1`, the residual activity in experiment [1] was 96%; in experiment [2] it was 92%; in experiment [3], 93%; in experiment [4], 107%; in experiment [5], 68%.

Values taken from ChEMBL document CHEMBL1152560, “Substituted 2-arylbenzothiazoles as kinase inhibitors: hit-to-lead optimization” (Bioorg Med Chem, 2009).
